Source: ChEMBL document CHEMBL4376829, “Discovery and biological evaluation of vinylsulfonamide derivatives as highly potent, covalent TEAD autopalmitoylation inhibitors” (Eur J Med Chem, 2019)
The source made the active and inactive calls. No cut-off for these calls is given here.

What was measured:
[1] = biological target: Mitogen-activated protein kinase kinase kinase kinase 4 (Homo sapiens) (UniProt O95819); experiment: Inhibition of recombinant human MAP4K4 (1 to 328 residues) at 10 uM using RLGRDKYKTLRQIRQ as substrate measured after 40 mins in presence of [gamma33P]ATP by scintillation counting method relative to control
[2] = biological target: Serine/threonine-protein kinase pim-1 (Homo sapiens) (UniProt P11309); experiment: Inhibition of recombinant full-length human PIM1 at 10 uM using KKRNRTLTV as substrate measured after 40 mins in presence of [gamma33P]ATP by scintillation counting method relative to control
[3] = test system: RAC-gamma serine/threonine-protein kinase (Homo sapiens), Q9Y243 [S472D]; experiment: Inhibition of recombinant human PKBgamma S472D mutant (117 to end residues) at 10 uM using GRPRTSSFAEGKK as substrate after 40 mins by in presence of [gamma33P]ATP by scintillation counting method relative to control
[4] = biological target: Inhibitor of nuclear factor kappa-B kinase subunit alpha (Homo sapiens) (UniProt O15111); experiment: Inhibition of full length recombinant human IKKalpha at 10 uM after 40 mins in presence of [gamma33P]ATP by scintillation counting method relative to control
[5] = biological target: Receptor-interacting serine/threonine-protein kinase 2 (Homo sapiens) (UniProt O43353); experiment: Inhibition of human RIPK2 (1 to 299 residues) at 10 uM using MBP as substrate measured after 120 mins in presence of [gamma33P]ATP by scintillation counting method relative to control
Homo sapiens = species on record: Homo sapiens; experiment: Inhibition of recombinant human EphB2 A848S/K918E mutant (560 to end residues) using poly (Glu, Tyr) 4:1 as substrate at 10 uM after 40 mins in presence of [gamma-33P]-ATP by scintillation counting relative to control
[6] = biological target: Serine/threonine-protein kinase MAK (Homo sapiens) (UniProt P20794); experiment: Inhibition of recombinant full-length human MAK at 10 uM using RRRFRPASPLRGPPK as substrate measured after 120 mins in presence of [gamma33P]ATP by scintillation counting method relative to control
[7] = test system: Glycogen synthase kinase-3 beta (Homo sapiens), P49841 [UNDEFINED MUTATION]; experiment: Inhibition of recombinant human GSK3beta H350L mutant (2 to end residues) at 10 uM using phospho GS2 peptide as substrate measured after 40 mins in presence of [gamma33P]ATP by scintillation counting method relative to control
[8] = CoA reactivity in PBS assessed as CoA adduct formation at 1 mM after 8 hrs by UPLC-MS analysis
[9] = biological target: Cyclin-dependent kinase-like 4 (Homo sapiens) (UniProt Q5MAI5); experiment: Inhibition of human CDKL4 at 10 uM by radiometric method relative to control
[10] = biological target: Transcriptional enhancer factor TEF-3 (Homo sapiens, UniProt Q15561); experiment: Binding affinity to Flag-tagged TEAD4 (unknown origin) expressed in HEK293T cells assessed as modification in Cys367 residue at 50 uM after 4 hrs by MS analysis; format: cell-based
[11] = biological target: Myosin light chain kinase, smooth muscle (Homo sapiens) (UniProt Q15746); experiment: Inhibition of recombinant human MLCK (1425 to 1771 residues) at 10 uM using […] as substrate measured after 40 mins in presence of [gamma33P]ATP by scintillation counting method relative to control
[12] = biological target: Serine/threonine-protein kinase Chk1 (Homo sapiens) (UniProt O14757); experiment: Inhibition of recombinant full length human CHK1 at 10 uM using KKKVSRSGLYRSPSMPENLNRPR as substrate measured after 40 mins in presence of [gamma33P]ATP by scintillation counting method relative to control
[13] = biological target: NUAK family SNF1-like kinase 1 (Homo sapiens) (UniProt O60285); experiment: Inhibition of recombinant human ARK5 (2 to end residues) at 10 uM using KKKVSRSGLYRSPSMPENLNRPR as substrate measured after 40 mins in presence of [gamma33P]ATP by scintillation counting method relative to control
[14] = biological target: Serine/threonine-protein kinase D3 (Homo sapiens) (UniProt O94806); experiment: Inhibition of full-length recombinant human PKD3 at 10 uM using KKLRRTLSVA as substrate after 40 mins by in presence of [gamma33P]ATP by scintillation counting method relative to control
[15] = biological target: cGMP-dependent protein kinase 1 (Homo sapiens) (UniProt Q13976); experiment: Inhibition of full-length recombinant human PKG1alpha at 10 uM using RRRLSFAEPG as substrate after 40 mins by in presence of [gamma33P]ATP by scintillation counting method relative to control
[16] = biological target: Tyrosine-protein kinase ZAP-70 (Homo sapiens) (UniProt P43403); experiment: Inhibition of recombinant full-length human ZAP70 at 10 uM using poly(Glu, Tyr) 4:1 as substrate measured after 40 mins in presence of [gamma33P]ATP by scintillation counting method5 relative to control
[17] = biological target: Serine/threonine-protein kinase WNK1 (Homo sapiens) (UniProt Q9H4A3); experiment: Inhibition of recombinant human WNK1 (1 to 491 residues) at 10 uM using myelin basic protein as substrate measured after 120 mins in presence of [gamm33P]ATP by scintillation counting method relative to control
[18] = biological target: Serine/threonine-protein kinase D2 (Homo sapiens) (UniProt Q9BZL6); experiment: Inhibition of full-length recombinant human PKD2 at 10 uM using KKLNRTLSVA as substrate after 40 mins by in presence of [gamma33P]ATP by scintillation counting method relative to control
[19] = biological target: Fibroblast growth factor receptor 4 (Homo sapiens) (UniProt P22455); experiment: Inhibition of recombinant human FGFR4 (442 to 755 residues) at 10 uM using poly(Glu, Tyr) 4:1 as substrate measured after 40 mins in presence of [gamma33P]ATP by scintillation counting method relative to control
[20] = biological target: Myosin light chain kinase 2, skeletal/cardiac muscle (Homo sapiens) (UniProt Q9H1R3); experiment: Inhibition of recombinant full-length human MYLK2 at 10 uM using KKLNRTLSFAEPG as substrate measured after 40 mins in presence of [gamma33P]ATP by scintillation counting method relative to control
[21] = test system: RAF proto-oncogene serine/threonine-protein kinase (Homo sapiens), P04049 [Y340D,Y341D]; experiment: Inhibition of recombinant human c-RAF Y340D/Y341D mutant (360 to end residues) at 10 uM using inactive MEK1 as substrate measured after 40 mins in presence of [gamma33P]ATP by scintillation counting method relative to control
[22] = test system: Serine/threonine-protein kinase N1 (Homo sapiens), Q16512 [V901I]; experiment: Inhibition of human PRK1 V901I mutant (498 to end residues) at 10 uM using KKLNRTLSFAEPG as substrate measured after 40 mins in presence of [gamma33P]ATP by scintillation counting method relative to control

Chain of Myosin light chain kinase 2, skeletal/cardiac muscle (Homo sapiens) (Q9H1R3 whole entry): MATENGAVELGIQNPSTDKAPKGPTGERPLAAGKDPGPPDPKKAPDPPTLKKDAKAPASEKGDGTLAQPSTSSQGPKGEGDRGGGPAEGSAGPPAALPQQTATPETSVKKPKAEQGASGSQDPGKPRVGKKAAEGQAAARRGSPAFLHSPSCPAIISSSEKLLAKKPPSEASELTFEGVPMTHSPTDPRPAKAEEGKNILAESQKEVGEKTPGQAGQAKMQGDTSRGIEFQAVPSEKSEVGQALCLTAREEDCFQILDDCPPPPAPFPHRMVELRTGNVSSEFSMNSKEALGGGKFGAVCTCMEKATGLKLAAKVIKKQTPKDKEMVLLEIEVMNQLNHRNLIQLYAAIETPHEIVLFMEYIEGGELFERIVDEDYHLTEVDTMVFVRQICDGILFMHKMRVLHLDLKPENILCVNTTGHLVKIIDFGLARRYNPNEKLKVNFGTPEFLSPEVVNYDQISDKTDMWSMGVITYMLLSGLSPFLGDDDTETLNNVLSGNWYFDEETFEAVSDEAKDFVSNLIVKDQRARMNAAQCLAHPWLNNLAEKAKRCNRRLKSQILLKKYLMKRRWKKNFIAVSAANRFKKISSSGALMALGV
Chain of Tyrosine-protein kinase ZAP-70 (Homo sapiens) (P43403 whole entry, the tested form may be a part): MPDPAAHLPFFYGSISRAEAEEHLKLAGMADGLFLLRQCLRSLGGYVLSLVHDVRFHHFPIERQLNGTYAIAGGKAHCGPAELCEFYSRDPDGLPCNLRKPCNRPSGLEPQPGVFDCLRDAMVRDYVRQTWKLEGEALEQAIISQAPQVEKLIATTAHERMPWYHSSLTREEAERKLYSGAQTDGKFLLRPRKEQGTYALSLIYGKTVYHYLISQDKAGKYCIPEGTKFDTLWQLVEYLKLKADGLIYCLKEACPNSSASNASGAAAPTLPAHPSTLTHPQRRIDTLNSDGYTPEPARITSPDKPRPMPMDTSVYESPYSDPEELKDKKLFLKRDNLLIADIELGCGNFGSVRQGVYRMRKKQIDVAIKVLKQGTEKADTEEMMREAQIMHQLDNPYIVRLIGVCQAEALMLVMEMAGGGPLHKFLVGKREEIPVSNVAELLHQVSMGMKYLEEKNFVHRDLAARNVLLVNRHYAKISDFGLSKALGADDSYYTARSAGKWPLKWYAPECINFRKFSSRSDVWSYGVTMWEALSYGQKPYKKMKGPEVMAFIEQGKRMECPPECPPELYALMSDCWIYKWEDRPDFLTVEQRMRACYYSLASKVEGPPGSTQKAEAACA
Chain of Cyclin-dependent kinase-like 4 (Homo sapiens) (Q5MAI5 whole entry): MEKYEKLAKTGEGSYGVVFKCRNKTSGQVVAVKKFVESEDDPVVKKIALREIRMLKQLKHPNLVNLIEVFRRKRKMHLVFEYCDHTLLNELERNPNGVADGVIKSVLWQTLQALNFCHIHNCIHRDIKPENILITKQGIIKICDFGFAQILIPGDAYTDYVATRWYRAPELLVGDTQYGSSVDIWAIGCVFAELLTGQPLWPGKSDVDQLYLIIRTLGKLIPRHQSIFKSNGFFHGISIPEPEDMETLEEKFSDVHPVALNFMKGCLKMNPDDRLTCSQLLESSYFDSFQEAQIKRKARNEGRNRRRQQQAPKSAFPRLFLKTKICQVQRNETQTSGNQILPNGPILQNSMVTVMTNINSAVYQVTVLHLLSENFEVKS
Chain of cGMP-dependent protein kinase 1 (Homo sapiens) (Q13976 whole entry): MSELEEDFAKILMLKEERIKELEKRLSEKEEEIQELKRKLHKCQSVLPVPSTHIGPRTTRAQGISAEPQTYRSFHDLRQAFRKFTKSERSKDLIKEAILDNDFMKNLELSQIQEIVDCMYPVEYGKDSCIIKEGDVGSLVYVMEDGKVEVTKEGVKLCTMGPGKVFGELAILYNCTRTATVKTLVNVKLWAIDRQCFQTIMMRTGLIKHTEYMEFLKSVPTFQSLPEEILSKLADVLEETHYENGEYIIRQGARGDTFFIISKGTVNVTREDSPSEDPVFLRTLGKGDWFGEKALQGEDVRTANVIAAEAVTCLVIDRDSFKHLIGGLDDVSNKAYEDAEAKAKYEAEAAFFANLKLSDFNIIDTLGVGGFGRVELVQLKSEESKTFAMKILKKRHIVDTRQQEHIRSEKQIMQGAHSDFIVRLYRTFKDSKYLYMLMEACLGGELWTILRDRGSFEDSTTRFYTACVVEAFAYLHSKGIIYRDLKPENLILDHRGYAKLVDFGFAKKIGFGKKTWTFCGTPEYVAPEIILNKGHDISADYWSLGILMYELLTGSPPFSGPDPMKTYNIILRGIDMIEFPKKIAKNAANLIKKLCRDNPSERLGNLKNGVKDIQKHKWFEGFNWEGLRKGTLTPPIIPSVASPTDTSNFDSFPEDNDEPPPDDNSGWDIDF
Chain of Serine/threonine-protein kinase pim-1 (Homo sapiens) (P11309 whole entry, looked up): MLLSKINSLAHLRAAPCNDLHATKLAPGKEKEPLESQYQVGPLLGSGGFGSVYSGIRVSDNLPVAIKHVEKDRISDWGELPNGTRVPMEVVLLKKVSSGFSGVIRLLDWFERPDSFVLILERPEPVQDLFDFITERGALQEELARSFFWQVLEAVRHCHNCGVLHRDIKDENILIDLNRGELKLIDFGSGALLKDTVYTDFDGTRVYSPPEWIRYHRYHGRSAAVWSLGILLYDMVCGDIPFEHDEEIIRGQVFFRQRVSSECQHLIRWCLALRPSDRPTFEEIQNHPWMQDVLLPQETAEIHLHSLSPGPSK
Chain of Mitogen-activated protein kinase kinase kinase kinase 4 (Homo sapiens) (O95819 2-1239 limits assumed): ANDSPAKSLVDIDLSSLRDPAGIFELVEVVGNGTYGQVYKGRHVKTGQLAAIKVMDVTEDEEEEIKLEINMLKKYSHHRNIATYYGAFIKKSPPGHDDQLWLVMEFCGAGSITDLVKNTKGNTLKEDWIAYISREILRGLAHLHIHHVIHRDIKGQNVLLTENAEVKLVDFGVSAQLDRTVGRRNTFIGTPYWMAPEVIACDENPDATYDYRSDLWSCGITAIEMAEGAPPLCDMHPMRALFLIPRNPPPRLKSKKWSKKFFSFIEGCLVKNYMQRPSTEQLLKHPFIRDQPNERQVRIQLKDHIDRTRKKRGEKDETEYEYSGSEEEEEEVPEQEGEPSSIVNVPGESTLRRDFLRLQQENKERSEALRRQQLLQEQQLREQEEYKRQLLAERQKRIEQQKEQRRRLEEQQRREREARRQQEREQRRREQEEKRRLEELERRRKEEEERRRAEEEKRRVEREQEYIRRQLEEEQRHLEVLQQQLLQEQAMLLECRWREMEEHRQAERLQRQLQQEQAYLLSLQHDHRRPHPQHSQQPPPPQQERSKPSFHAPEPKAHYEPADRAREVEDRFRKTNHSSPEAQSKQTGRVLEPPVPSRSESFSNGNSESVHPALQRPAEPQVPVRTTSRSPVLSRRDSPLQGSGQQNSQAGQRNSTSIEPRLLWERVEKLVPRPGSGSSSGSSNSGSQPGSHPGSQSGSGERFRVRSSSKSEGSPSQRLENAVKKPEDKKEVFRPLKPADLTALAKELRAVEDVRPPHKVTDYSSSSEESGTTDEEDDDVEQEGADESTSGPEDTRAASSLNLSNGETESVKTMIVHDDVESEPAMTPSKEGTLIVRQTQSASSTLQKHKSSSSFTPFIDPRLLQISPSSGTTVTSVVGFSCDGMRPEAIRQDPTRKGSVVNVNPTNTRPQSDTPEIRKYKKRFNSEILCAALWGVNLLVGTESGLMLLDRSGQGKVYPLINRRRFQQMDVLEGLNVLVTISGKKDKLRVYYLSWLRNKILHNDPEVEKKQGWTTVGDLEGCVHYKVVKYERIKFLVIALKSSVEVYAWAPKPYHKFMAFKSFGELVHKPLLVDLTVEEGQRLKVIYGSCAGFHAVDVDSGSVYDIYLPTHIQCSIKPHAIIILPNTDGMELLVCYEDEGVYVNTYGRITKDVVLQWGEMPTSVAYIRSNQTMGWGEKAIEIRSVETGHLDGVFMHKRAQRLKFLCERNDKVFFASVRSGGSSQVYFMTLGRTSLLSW
Chain of RAF proto-oncogene serine/threonine-protein kinase (Homo sapiens), P04049 [Y340D,Y341D] (P04049 whole entry Y340D/Y341D): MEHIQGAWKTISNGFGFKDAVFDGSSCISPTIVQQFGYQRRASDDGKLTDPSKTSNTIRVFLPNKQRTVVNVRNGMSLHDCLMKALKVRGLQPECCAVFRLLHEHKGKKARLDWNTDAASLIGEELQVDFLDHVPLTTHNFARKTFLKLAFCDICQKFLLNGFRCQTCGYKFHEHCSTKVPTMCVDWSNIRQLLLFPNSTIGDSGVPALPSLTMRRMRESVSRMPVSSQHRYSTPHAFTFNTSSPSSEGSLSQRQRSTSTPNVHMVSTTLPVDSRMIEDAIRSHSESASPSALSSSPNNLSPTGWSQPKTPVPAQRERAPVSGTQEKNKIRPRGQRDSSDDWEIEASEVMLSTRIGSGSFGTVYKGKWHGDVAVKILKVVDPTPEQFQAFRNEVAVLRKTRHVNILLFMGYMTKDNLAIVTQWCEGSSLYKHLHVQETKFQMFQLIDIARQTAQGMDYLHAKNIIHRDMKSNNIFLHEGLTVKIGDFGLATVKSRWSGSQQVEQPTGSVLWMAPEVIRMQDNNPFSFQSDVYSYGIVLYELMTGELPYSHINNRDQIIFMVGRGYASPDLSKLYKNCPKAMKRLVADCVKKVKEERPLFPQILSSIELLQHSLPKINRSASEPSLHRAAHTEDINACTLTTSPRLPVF
Chain of RAC-gamma serine/threonine-protein kinase (Homo sapiens), Q9Y243 [S472D] (Q9Y243 whole entry S472D): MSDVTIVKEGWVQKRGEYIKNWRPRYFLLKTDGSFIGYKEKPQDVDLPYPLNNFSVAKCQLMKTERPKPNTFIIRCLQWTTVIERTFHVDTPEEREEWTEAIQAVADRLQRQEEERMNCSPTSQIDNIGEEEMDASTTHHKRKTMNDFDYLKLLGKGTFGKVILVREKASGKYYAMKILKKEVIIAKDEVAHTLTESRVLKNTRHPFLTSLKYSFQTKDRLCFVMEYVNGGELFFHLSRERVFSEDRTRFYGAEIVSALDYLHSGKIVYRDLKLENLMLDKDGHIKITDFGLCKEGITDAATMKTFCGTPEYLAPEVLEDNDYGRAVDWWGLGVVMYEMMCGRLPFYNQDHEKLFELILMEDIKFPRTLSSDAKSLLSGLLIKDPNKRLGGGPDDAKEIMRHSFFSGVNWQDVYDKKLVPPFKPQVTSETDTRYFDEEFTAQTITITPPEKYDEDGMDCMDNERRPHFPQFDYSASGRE

Structure (SMILES): C=CS(=O)(=O)Nc1ccc(Cc2ccc3ccccc3c2)cc1
- inhibition [1]: 7%
- inhibition [2]: -3%
- inhibition [3]: 8%
- inhibition [4]: -2%
- inhibition [5]: 6%
- inhibition (Homo sapiens): 4%
- inhibition [6]: -3%
- inhibition [7]: -2%
- Activity [8]: inactive
- inhibition [9]: -6%
- Activity [10]: Active
- inhibition [11]: 5%
- inhibition [12]: 5%
- inhibition [13]: 10%
- inhibition [14]: 22%
- inhibition [15]: -6%
- inhibition [16]: 5%
- inhibition [17]: -10%
- inhibition [18]: -4%
- inhibition [19]: -4%
- inhibition [20]: 6%
- inhibition [21]: -8%
- inhibition [22]: 2%
